In brackets after ≈: the same amount, converted by molar mass.

Common to all, as to format: functional, organism-based
The test system of one experiment is Lacticaseibacillus casei. Put plainly: Compound was measured for the growth inhibition of Lactobacillus casei up to concentration 4 ug/mL; NA means inactive.
Experiment [1] concerns Enterococcus faecium. Put plainly: Compound was measured for the growth inhibition of Streptococcus faecium. The following applies: read-out: I50.
Experiment [2] relates to Enterococcus faecium. Kind of experiment: Compound was measured for the growth inhibition of S. faecium; NA means inactive.

On to `NC1=NC(=O)C2N=C(Cc3ccc(C(=O)NC(CCC(=O)O)C(=O)O)cc3)COC2N1` (centres undefined), for which the I50 result in the experiment with Lacticaseibacillus casei is “Not Active”. For the same compound, the IC50 with Enterococcus faecium [1] was 1.4 µg/mL (≈ 3.25 µM).

As for `NC1=NC(=O)C2N=C(c3ccc(C(=O)NC(CCC(=O)O)C(=O)O)cc3)COC2N1` (centres undefined), the I50 entry with Lacticaseibacillus casei and with Enterococcus faecium [2] was “Not Active” in each case.

Values taken from ChEMBL document CHEMBL1122271, “Folate analogues. 22. Synthesis and biological evaluation of two analogues of dihydrofolic acid possessing a 7,8-dihydro-8-oxapterin ring system” (J Med Chem, 1983).
